Measured values reported in patent publication US20150203561A1, “BETA THYMOSIN FRAGMENTS” (REGENERX BIOPHARMACEUTICALS, INC., priority 2008, published 2015).
“Also recorded” adds a separate entry of the source.

Experiments:
[1] = target: T1, IKKb (Homo sapiens, UniProt O14920); experiment: Cell-free IkBa phosphorylation ELISA (NFkB signaling pathway); type: biochemical; parameters: key to Inhibits IkBa phosphorylation: P = active; U = useful; settings: summary of peptide uses
T1 sequence (O14920 1-756): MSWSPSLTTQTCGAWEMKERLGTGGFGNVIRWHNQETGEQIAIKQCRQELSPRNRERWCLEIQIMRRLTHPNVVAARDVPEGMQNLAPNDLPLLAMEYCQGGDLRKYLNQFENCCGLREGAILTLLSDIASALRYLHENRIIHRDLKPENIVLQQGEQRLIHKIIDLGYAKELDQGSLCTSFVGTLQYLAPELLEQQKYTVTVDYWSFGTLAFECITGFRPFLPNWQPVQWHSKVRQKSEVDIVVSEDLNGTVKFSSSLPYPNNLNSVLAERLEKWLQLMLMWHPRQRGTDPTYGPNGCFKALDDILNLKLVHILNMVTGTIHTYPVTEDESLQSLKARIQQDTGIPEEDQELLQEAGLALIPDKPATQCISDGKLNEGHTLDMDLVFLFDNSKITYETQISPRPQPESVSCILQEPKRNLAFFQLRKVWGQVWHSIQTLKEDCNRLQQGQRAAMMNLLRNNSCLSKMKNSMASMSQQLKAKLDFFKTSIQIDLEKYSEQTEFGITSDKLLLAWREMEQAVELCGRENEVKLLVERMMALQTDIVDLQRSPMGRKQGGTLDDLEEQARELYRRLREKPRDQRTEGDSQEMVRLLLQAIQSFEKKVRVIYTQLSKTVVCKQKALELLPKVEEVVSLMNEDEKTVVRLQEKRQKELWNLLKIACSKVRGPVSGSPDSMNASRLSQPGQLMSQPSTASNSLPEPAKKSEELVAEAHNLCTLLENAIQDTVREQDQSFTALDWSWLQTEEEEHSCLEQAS
Protocol: Effect of Tb4 and peptides on the NFkB signaling pathway • Cell-free assay • Prepared 1.0, 0.1, and 0.01 ng/ml solutions of Tb4 or peptides in kinase buffer supplied with kit • Added 10 μl of the solutions to wells of a 96-well plate coated with lkBa • IKKb (20 mU) was added to wells • 90 μl kinase reaction buffer (containing ATP) was added to the wells • ELISA to detect phosphorylated lkBa

[2] = test system: neuron survival; experiment: Promotion of neuron survival (summary table); parameters: key: P = active; U = useful; settings: summary of peptide uses
[3] = test system: L1; experiment: Stimulation of L1 production (summary table); parameters: key: P = active; U = useful; settings: summary of peptide uses
[4] = test system: tissue damage caused by UV radiation; experiment: UV radiation tissue damage (summary table); parameters: key: P = active; U = useful; settings: summary of peptide uses
[5] = test system: neurite outgrowth; experiment: Promotion of neurite outgrowth (summary table); parameters: key: P = active; U = useful; settings: summary of peptide uses
[6] = test system: human dermal fibroblasts; experiment: Collagen secretion, colorimetric assay; type: cell-based; parameters: key to Stimulates collagens / Inhibits collagens: P = active; U = useful; settings: summary of peptide uses
Protocol: (§1) Effect of Tb4 and peptides on collagen secretion • Human dermal fibroblasts (Fb) were cultured to 80% confluence • Cells were treated with 1 μg/ml Tb4 or peptides for 24, 48, or 72 hours. Cells were treated once/day. • Culture supernatants (n=3, experiments repeated 5 times) were assayed for collagen secretion using a colorimetric assay that detects collagen types I, II, III, IV and V, and possibly VII

[7] = test system: human dermal fibroblasts; experiment: Elastin secretion, colorimetric assay; type: cell-based; parameters: key to Stimulates Elastin: P = active; U = useful; settings: for Stimulates Elastin: summary of peptide uses
Protocol: as §1, with “elastin” for “collagen”, “6” for “5”, “• Data was analyzed using the t-test” for “that detects collagen types I, II, III, IV and V, and possibly VII”

[8] = test system: T-lymphocyte; experiment: Impaired T-lymphocyte blastogenic response (summary table); parameters: key: P = active; U = useful; settings: summary of peptide uses
[9] = test system: dermal Fb; experiment: TNF-a-stimulated IL-8 secretion ELISA, dermal fibroblasts; type: cell-based, human; settings: 1 μg/ml, 10 ng/ml TNF-a
Protocol: (§2) Analysis of IL-8 Secretion • Human corneal epithelial cells or dermal Fb were cultured to 80% confluence • Cells were pre-treated with 1 μg/ml Tb4 or peptides for one hour • Cells were stimulated with 10 ng/ml TNF-a in the presence or absence of Tb4 or peptides • Culture medium was analyzed for secreted IL-8 by ELISA (n=3, experiments repeated twice) • Data was analyzed using the t-test

[10] = test system: TNF-a-stimulated IL8 secretion; experiment: Suppression of inflammation (summary table; IL-8 secretion); type: cell-based, human; parameters: key: P = active; U = useful; settings: summary of peptide uses
Protocol: as §2

[11] = test system: cell migration; experiment: Stimulation of migration (summary table); type: cell-based; parameters: key: P = active; U = useful; settings: summary of peptide uses
[12] = test system: Human corneal epithelial cells; experiment: TNF-a-stimulated IL-8 secretion ELISA, corneal epithelial cells; type: cell-based; settings: 1 μg/ml, 10 ng/ml TNF-a
Protocol: as §2

[13] = test system: human dermal fibroblasts; experiment: LDH cytotoxicity assay in human dermal fibroblasts exposed to cytotoxic agents; type: cell-based; parameters: key to Protects from cytotoxicity: P = active; U = useful; settings: for Protects from cytotoxicity: summary of peptide uses
Protocol: Dose Response Analysis of Peptide 3A • Human dermal fibroblasts (Fb, Cascade Biologics, OR) were cultured to 80% confluence • 2 ml CHX (0.002%) in basal medium ±1 μg/ml Tb4 or 1.0, 0.1, 0.01, or 0.001 μg/ml peptide 3A was added to Fb for 1, 2, 3, or 4 hours • 100 μl culture medium (n=4) was added to 100 μl LDH reagent and incubated at room temperature for 20 minutes • OD500 nm was read and averages ±SEM were calculated • Data was analyzed with probability of p≦0.05

[14] = test system: human dermal Fb; experiment: CHX-induced apoptosis (APOPercentage dye) in human dermal Fb; type: cell-based; parameters: key to Inhibits apoptosis: P = active; U = useful; settings: for Protection of dermal Fb against CHX-induced apoptosis: 1 μg/ml, 0.002% CHX for 2 hours; for Inhibits apoptosis: summary of peptide uses
Protocol: Effect of Tb4 and Peptide 3A on CHX-induced apoptosis • Human dermal Fb were cultured to 80% confluence • Fb were treated with 0.002% CHX+1 μg/ml Tb4 or peptide 3A, 4A or 6A for 1.5 hours • APOPercentage “dye” was added to the Fb cultures at a 1:50 dilution for an additional 30 minutes • Excess dye was washed from the cells, and digital images were captured. Cells dyed red were apoptotic • Adobe Photoshop was used to calculate the number of red pixels in six digitized images for each treatment • Statistical analysis was done using the t-test

[15] = test system: human gingival fibroblasts; experiment: CHX-induced apoptosis in human gingival fibroblasts; type: cell-based; settings: 0.002% CHX for 2 hours
[16] = test system: human gingival fibroblasts; experiment: CHX-induced cytotoxicity in human gingival fibroblasts; type: cell-based
[17] = test system: p65 subunit of NFkB in human corneal epithelial cells; experiment: NFkB nuclear translocation; type: cell-based; parameters: key: P = active; U = useful; settings: summary of peptide uses
Protocol: Analysis of NFkB Nuclear Translocation • Human corneal epithelial cells were cultured to 80% confluence • Cells were pre-treated with 1 μg/ml Tb4 or peptide 4A or 6A for one hour • Cells were stimulated with 10 ng/ml TNF-a in the presence or absence of Tb4 or peptides for 15 minutes • Cells were fixed and labeled with antibodies to the p65 subunit of NFkB

[18] = test system: Transformed human corneal epithelial cells (HCET); experiment: Collagen type IV secretion ELISA; type: cell-based; parameters: key to Stimulates collagen IV: P = active; U = useful; settings: summary of peptide uses
Protocol: Effect of Tb4 and peptides on collagen type IV secretion • Transformed human corneal epithelial cells (HCET) were cultured to 80% confluence • Cells were treated with 1 μg/ml Tb4 or peptides for 24 hours • Culture supernatant samples (n=3 per experiment, total of 4 experiments) were analyzed using a collagen type IV ELISA • Data was analyzed using the t-test

[19] = 1 μg/ml, 0.002% CHX, 1, 2, or 3 hours exposure
[20] = 1 μg/ml, 0.002% CHX, 2 hour exposure

Substance | Promotes neuron survival [2] | Stimulates L1 production [3] | Inhibits tissue damage caused by UV radiation [4] | Protects tissue from UV radiation damage [4] | Promotes neurite outgrowth [5] | Inhibits collagens [6] | Stimulates Elastin [7] | Restores impaired T-lymphocyte blastogenic response [8] | Suppression of TNF-a-stimulated IL8 secretion [9] | Suppresses inflammation [10] | Stimulates Migration [11] | Protects from cytotoxicity [13] | Inhibits apoptosis [14] | Inhibits NFkB translocation [17] | other results
Ac-Leu-Lys-Lys-Thr-Glu-Thr-Gln-Glu-Lys-Asn-Pro-Leu-Pro-Ser-Lys-Glu-Thr-Ile-Glu-Gln-Glu-Lys-Gln-Ala-Gly-Glu-Ser-OH (Ac-LKKTETQEKNPLPSKETIEQEKQAGES-OH) [Fragment Db] | U | U | U | U | U | U | U | U | – | – | – | – | – | – | Inhibits IkBa phosphorylation [1]: U
Ac-Ser-Asp-Lys-Pro-OH (Ac-SDKP-OH) [Peptide 2B] | U | U | U | U | U | – | – | – | suppress | P | P | – | – | – | –
H-Leu-Lys-Lys-Thr-Glu-Thr-Gln-Glu-Lys-Asn-Pro-Leu-Pro-Ser-Lys-Glu-Thr-Ile-Glu-Gln-Glu-Lys-Gln-Ala-Gly-Glu-Ser-OH (H-LKKTETQEKNPLPSKETIEQEKQAGES-OH) [Fragment Da] | U | U | U | U | U | U | U | U | – | – | – | – | – | – | Inhibits IkBa phosphorylation [1]: U
H-Leu-Lys-Lys-Thr-Glu-Thr-OH (H-LKKTET-OH) [Peptide 1A] | U | U | U | U | U | – | – | – | – | P | – | – | – | – | Suppression of TNF-a-stimulated IL8 secretion [12]: suppress
H-SDKPDMAEIEKFDKS-OH [Peptide 3A] | U | U | U | U | U | – | – | – | suppress | P | – | P | P | – | Protection of Fb against the cytotoxic effects of CHX (LDH), dose response analysis ([13]; 1.0 μg/ml peptide, 0.002% CHX, 2 hours): protects; Protection of Fb against the cytotoxic effects of CHX (LDH) [13, 19]: protect; Protection of Fb against the cytotoxic effects of CHX (LDH) [13, 20]: protect; Protection of Fb against the cytotoxic effects of CHX (LDH) ([13]; 0.002% and 0.005% CHX, 2 hours exposure): protects; Protection of Fb against the cytotoxic effects of benzalkonium chloride (LDH) ([13]; 0.01% benzalkonium chloride): protects; Protection of Fb against the cytotoxic effects of hydrogen peroxide (LDH) ([13]; 1% hydrogen peroxide): protects; Protection of Fb against the cytotoxic effects of ethanol (LDH) ([13]; 10% ethanol): does not protect; Inhibition of chlorhexidine digluconate, hydrogen peroxide, and benzalkonium chloride-induced cytotoxicity ([13]; cultured human dermal fibroblasts, up to 4 hours exposure): can inhibit; Protection of dermal Fb against CHX-induced apoptosis [14]: protect; also recorded: can inhibit; Protection of gingival Fb against CHX-induced apoptosis [15]: protect; also recorded: can inhibit; Protection of gingival Fb against cytotoxicity induced by CHX ([16]; 0.002% CHX): protects; Inhibition of chlorhexidine digluconate and Peridex induced cytotoxicity ([16]; cultured human gingival fibroblasts, Peridex diluted to 0.002% CHX): can inhibit
H-SDKPDMAEIEKFDKSKLKKTET-OH [Fragment Aa] | U | U | U | U | U | U | U | – | – | U | U | U | U | U | Stimulates collagen IV [18]: U
H-SDKPDMAEIEKFDKSKLKKTETQ-OH [Fragment Ba] | U | U | U | U | U | U | U | – | – | U | U | U | U | U | Stimulates collagen IV [18]: U
Thymosin β4 [Tb4, reference compound] | P | P | P | P | P | – | P | P | suppress | P | P | P | P | P | Protection of Fb against the cytotoxic effects of CHX (LDH) [13, 19]: protect; Protection of Fb against the cytotoxic effects of CHX (LDH) [13, 20]: protect; Protection of dermal Fb against CHX-induced apoptosis [14]: protect; Protection of gingival Fb against CHX-induced apoptosis [15]: protect; Suppression of TNF-a-stimulated IL8 secretion [12]: suppress; Secretion of elastin ([7]; dermal Fb, 1 μg/ml once/day, 24, 48, or 72 hours): stimulate
